From ChEMBL document CHEMBL4043247, “Design, synthesis and biological evaluation of 8-substituted-6-hydrazonoindolo[2,1-b]quinazolin-12(6H)-one scaffolds as potential cytotoxic agents: IDO-1 targeting molecular docking studies” (Bioorg Med Chem Lett, 2017)

Tests used:
MCF7 = test: Cytotoxicity against human MCF7 cells after 6 days by MTT assay; type: functional, cell-based; conditions: MCF7, 144 h
A549 = test: Cytotoxicity against human A549 cells after 6 days by MTT assay; type: functional, cell-based; conditions: A549, 144 h
HeLa = test: Cytotoxicity against human HeLa cells after 6 days by MTT assay; type: functional, cell-based; conditions: 144 h
[1] = Antioxidant activity assessed as DPPH radical scavenging activity incubated for 30 mins under dark condition by UV-vis spectrophotometric method; type: functional
HEK293 = test: Cytotoxicity against HEK293 cells after 6 days by MTT assay; type: cell-based; conditions: Homo sapiens, HEK293, 144 h

Row | SMILES | IC50 [1] [µM] | IC50 (MCF7) [µM] | IC50 (A549) [µM] | IC50 (HeLa) [µM] | IC50 (HEK293) [µM]
1 | CC(/C=C(\O)c1ccccc1)=N\N=C1\c2cc(I)ccc2-n2c1nc1ccccc1c2=O | 11.6 | 19.9 | 20.4 | 18.8 | 82.5
2 | CC(/C=C(\O)c1ccccc1)=N\N=C1\c2cc(-c3ccc(C(=O)O)cc3)ccc2-n2c1nc1ccccc1c2=O | 5.02 | 9.42 | 7.19 | 9.42 | 64.1
3 | N/N=C1/c2cc(-c3ccc(C(=O)O)cc3)ccc2-n2c1nc1ccccc1c2=O | 22 | 61.1 | 62.2 | 54.3 | 
4 | COc1cccc(/C=N/N=C2/c3cc(Cl)ccc3-n3c2nc2ccccc2c3=O)c1O | 22.2 | 35.4 | 40.8 | 36.6 | 
5 | COc1cccc(/C=N/N=C2/c3cc(-c4ccc(C(=O)O)cc4)ccc3-n3c2nc2ccccc2c3=O)c1O | 5.31 | 37.1 | 39.2 | 32.3 | 
6 | CC(/C=C(\O)c1ccccc1)=N\N=C1\c2cc(Cl)ccc2-n2c1nc1ccccc1c2=O | 12.5 | 19.7 | 18.1 | 23.6 | 71
7 | N/N=C1/c2cc([N+](=O)[O-])ccc2-n2c1nc1ccccc1c2=O | 27.3 | 53.6 | 45.6 | 50.3 | 
8 | COc1cccc(/C=N/N=C2/c3cc(F)ccc3-n3c2nc2ccccc2c3=O)c1O | 21.1 | 35.5 | 31.2 | 34.3 | 

Continued by falling IC50 [1], values first:

Row | IC50 [1] [µM] | SMILES | IC50 (MCF7) [µM] | IC50 (A549) [µM] | IC50 (HeLa) [µM] | IC50 (HEK293) [µM]
9 | 29.7 | CC(/C=C(\O)c1ccccc1)=N\N=C1\c2cc([N+](=O)[O-])ccc2-n2c1nc1ccccc1c2=O | 31.5 | 28.4 | 33.1 | 
10 | 28.7 | COc1cccc(/C=N/N=C2/c3cc([N+](=O)[O-])ccc3-n3c2nc2ccccc2c3=O)c1O | 34.2 | 40.1 | 38 | 
11 | 24.9 | N/N=C1/c2cc(I)ccc2-n2c1nc1ccccc1c2=O | 44.9 | 43.4 | 51.1 | 
12 | 20.1 | CC(/C=C(\O)c1ccccc1)=N\N=C1\c2cc(F)ccc2-n2c1nc1ccccc1c2=O | 20.4 | 32 | 24.5 | 
13 | 19.9 | N/N=C1/c2cc(Cl)ccc2-n2c1nc1ccccc1c2=O | 67.5 | 62.1 | 55.7 | 
14 | 16.4 | N/N=C1/c2cc(F)ccc2-n2c1nc1ccccc1c2=O | 54.6 | 44.6 | 67.7 | 
15 | 11.2 | N/N=C1/c2cc(-c3ccncc3)ccc2-n2c1nc1ccccc1c2=O | 50.4 | 47.8 | 44.1 | 
16 | 10.9 | COc1cccc(/C=N/N=C2/c3cc(I)ccc3-n3c2nc2ccccc2c3=O)c1O | 30.4 | 32.3 | 29.2 | 
17 | 6.23 | CC(/C=C(\O)c1ccccc1)=N\N=C1\c2cc(-c3ccncc3)ccc2-n2c1nc1ccccc1c2=O | 11.6 | 6.01 | 12.2 | 76.1
18 | 4.98 | COc1cccc(/C=N/N=C2/c3cc(-c4ccncc4)ccc3-n3c2nc2ccccc2c3=O)c1O | 24.8 | 32.9 | 24.8 | 
19 | 3.48 | O=C1O[C@H]([C@@H](O)CO)C(O)=C1O [ASCORBIC ACID] |  |  |  | 
